Measured values: patent US20130136839A1, “Taste-Masking Compositions, Sweetener Compositions and Consumable Product Compositions Containing the Same” (Nutrinova Nutrition Specialties & Food Ingredients GmbH, priority 2011, published 2013)

Key:
Assay type in all cases: in vivo, human
[1] = test system: panel of 4 trained sensory evaluators; assay: Taste and spit assay, descriptive taste impression versus base samples, panel of 4 trained sensory evaluators (Examples 3 to 31); conditions: acesulfame K 350 wppm
Method: (§1) All tests were conducted under controlled and standardized conditions.
(§2) The samples were prepared by a trained laboratory assistant.
35 ml of the samples were served at room temperature in clear plastic cups.
The following samples comprising a composition of the invention were tested for their ability to improve the taste of artificial sweeteners.
All samples were tested in duplicate and evaluated at least 3 different concentrations in comparison to 3 base samples (samples 1 to 3).
The panelists were asked to evaluate and to describe the taste impression of the samples 4 to 13 containing a sweetener composition comprising acesulfame potassium, sucralose and a composition of the invention, e.g. bitter aftertaste, creaminess, fullness and character of the sweeteners in each case in comparison to the base samples 1 to 3.
The results of the taste and spit assay are based in each case on a qualitative evaluation of the differences between the samples.

panelists [2] = assay: Naringin at non-detectable concentration tested in acesulfame K and acesulfame K/sucralose solutions (Example 34); conditions: naringin 1.6 wppm (not detectable) in acesulfame K (350 ppm) solution and in acesulfame K (350 wppm)/sucralose (80 wppm) solution; all panelists
Description: The method further comprises the step of determining whether the at least one flavoring, when present in the sweetener composition at or below the flavor threshold level, is capable of modifying, masking, reducing and/or suppressing the unpleasant off-taste of the sweetener/sweetness enhancer in the sweetener composition. This determination may be made by employing suitable methods known in the art. For example the determination may be made by utilizing a taster or a taste panel. The taster may sample the prepared sweetener composition and make a determination as to whether the off-taste has been modified, masked, reduced, and/or suppressed. If so, then the particular flavoring is capable of modifying, masking, reducing, and/or suppressing unpleasant off-tastes. Preferably, the flavor of the flavoring is not detectable, e.g., by taste, in the sweetener composition, the sweetness enhancer composition, and/or the consumable product composition.
Then, naringin was tested at this concentration in an aceslfame K (350 ppm) solution and in an acesulfame K (350 wppm)/sucralose (80 wppm) solution.

panelists [3] = assay: Dilution of naringin in water until its taste is no longer detectable (Example 34); conditions: diluted in water
Description: The method comprises the step of selecting at least one flavoring. The flavorings may be as discussed herein. The method may further comprise the step of diluting the at least one flavoring with a diluent to form a diluted composition to determine a flavor threshold level at which the flavor of the flavoring is not detectable, e.g., by taste, in the diluted composition. In order to make this determination, the diluted composition may be sampled, e.g., tasted, at various stages of dilution. As the diluted composition becomes more dilute, the flavor of the flavorant will become less recognizable or identifiable. The flavor threshold level is the point at which the flavor of the flavoring is no longer recognized or identified by a taster or taste panel. The method further comprises the step of adding at least one flavoring to a sweetener and/or sweetness enhancer to form a sweetener composition. The sweeteners and/or sweetness enhancers are discussed above. The sweeteners and/or sweetness enhancers may have an unpleasant off-taste associated therewith, as discussed above. Preferably, the flavoring is added to the sweetener and/or the sweetness enhancer at a level at or below the flavor threshold level.
Naringin was diluted in water until the diluted solution reached a concentration of 1.6 wppm. At this concentration, its taste was no longer detectable in water.

[4] = test system: panel of 4 trained sensory evaluators; assay: Taste and spit assay with regard to sweetness in the aftertaste, panel of 4 trained sensory evaluators (Example 33); conditions: 35 ml at 6.0-8.0 °C; aftertaste after 2 minutes; all 4 panelists; qualitative
Method: as §1, §2
(§3) The panel used the sweetness scale anchored by three concentrations of sucrose:
(§4) Sweetness was assessed with the 1st sip (max. 30 ml, min of 15 ml) and scored in the aftertaste (after 2 minutes).
(§5) All samples were tested in duplicate.
The samples with the same composition as in Example 1 have been assessed: […]

[5] = test system: panel of 11 trained sensory evaluators; assay: Taste and spit assay with regard to sweetness in the aftertaste, panel of 11 trained sensory evaluators (Example 2); conditions: aqueous samples; 35 ml at 6.0-8.0 °C; aftertaste after 2 minutes; 11 panelists; qualitative, FIG. 2
Method: Air was constantly exchanged.
as §2, §3, §4, §5

[6] = composition with amino acids: benzaldehyde 0.02 wppm in sample 13 (sucralose 75 wppm), quinine 0.01 wppm in sample 32 (sucralose 80 wppm)
[7] = composition without amino acids: benzaldehyde 0.02 wppm in sample 12, quinine 0.01 wppm in sample 31, sucralose 80 wppm

O=Cc1ccccc1 [Benzaldehyde, benzaldehyde]
further effect added to the composition by the substance used below its threshold [1, 6]: did not add any further effect to the composition of the invention
further effect added to the composition by the substance used below its threshold [1, 7]: did not add any further effect to the composition of the invention

C[C@@H]1O[C@@H](O[C@H]2[C@H](Oc3cc(O)c4c(c3)O[C@H](c3ccc(O)cc3)CC4=O)O[C@H](CO)[C@@H](O)[C@@H]2O)[C@H](O)[C@H](O)[C@H]1O [Naringin]
effect on the bitter aftertaste of acesulfame K (panelists [2]): improve the bitter aftertaste of acesulfame K
concentration at which its taste was no longer detectable in water (panelists [3]): 1.6 wppm

C=C[C@H]1C[N@@]2CC[C@H]1C[C@H]2[C@H](O)c1ccnc2ccc(OC)cc12 [Quinine, quinine]
further effect added to the composition by the substance used below its threshold [1, 6]: does not add anything to the effects of the composition
further effect added to the composition by the substance used below its threshold [1, 7]: does not add anything to the effects of the composition

delta-undecalactone
taste contribution of the lactone to the total composition ([1]; delta-undecalactone 0.0388 wppm in sample 14 with naringin, 4-methoxy salicylaldehyde, syringaldehyde, whiskey lactone, sucralose 80 wppm, all panelists): not being too volatile and as adding a creamy taste, and as improving the total composition

saccharose [Sample 1]
sweetness in the aftertaste [4]: less sweet in the aftertaste compared to acesulfame potassium and sucralose
sweetness in the aftertaste [5]: less sweet in the aftertaste than acesulfame potassium and sucralose
